Reference: PubChem BioAssay (NCI)
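How tested: cells in 96-well plates exposed to compound for 48 hours at five concentrations. The concentration for 50% growth inhibition is given as GI50. TGI denotes the concentration required for complete inhibition of growth.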

Assays:
Experiment in all cases: inhibition of tumour cell growth, NCI panel, 48 h
ACHN renal = system: ACHN renal
SF-268 CNS = system: SF-268 CNS
MCF7 breast = system: MCF7 breast
OVCAR-4 ovarian = system: OVCAR-4 ovarian
SR leukemia = system: SR leukemia
HT29 colon = system: HT29 colon
SF-539 CNS = system: SF-539 CNS
CAKI-1 renal = system: CAKI-1 renal

Row | SMILES | GI50 (ACHN renal) [nM] | TGI (ACHN renal) [µM] | GI50 (SF-268 CNS) [nM] | TGI (SF-268 CNS) [µM] | GI50 (MCF7 breast) [nM] | TGI (MCF7 breast) [µM] | GI50 (OVCAR-4 ovarian) [µM] | TGI (OVCAR-4 ovarian) [µM] | GI50 (SR leukemia) [nM] | TGI (SR leukemia) [µM] | GI50 (HT29 colon) [nM] | TGI (HT29 colon) [µM] | GI50 (SF-539 CNS) [nM] | TGI (SF-539 CNS) [µM] | GI50 (CAKI-1 renal) [µM] | TGI (CAKI-1 renal) [µM]
1 | COc1ccccc1NS(=O)(=O)c1ccc2oc(SC(C)C)nc2c1 | 21000 | > 100 | 29500 | > 100 | 15500 | > 100 | 8.67 | 77.6 | 3620 | 24.4 | 22200 | 64.1 | 18600 | 56.1 | 17 | 68.9
2 | Cc1ccc(-c2nc([P+](c3ccccc3)(c3ccccc3)c3ccccc3)c(Nc3ccccc3)o2)cc1 | 1040 | 2.22 | 1150 | 2.53 | 346 | 1.43 | 0.32 | 1.26 | 390 | 2.32 | 344 | 1.45 | 1540 | 2.91 | 1.08 | 2.34
3 | NNC(=O)c1ccc(OCc2nc3ccccc3[nH]2)cc1 | – | > 100 | – | > 100 | – | > 100 | – | > 100 | – | > 100 | – | > 100 | – | > 100 | – | > 100
4 | CSCCCNC(=O)c1csc(-c2csc(CCNC(=O)CNC(=O)CNC(=O)OC(C)(C)C)n2)n1 | – | > 100 | – | > 100 | – | > 100 | – | > 100 | – | > 100 | – | > 100 | – | > 100 | – | > 100
5 | Nc1nc(=O)n([C@@H]2CS[C@H](CO)O2)cc1F | > 100000 | > 100 | > 100000 | > 100 | > 100000 | > 100 | > 100 | > 100 | > 100000 | > 100 | > 100000 | > 100 | > 100000 | > 100 | > 100 | > 100
6 | CCOC(=O)c1cnn2c3ccccc3n(S(=O)(=O)c3ccc(OC)cc3)c12 | 811 | > 100 | 2330 | > 100 | 99.8 | > 100 | 1.58 | > 100 | 238 | > 100 | 310 | > 100 | 252 | 0.868 | 0.204 | > 83.7
7 | Cc1cc(Nc2cc(N3CCN(C)CC3)nc(Sc3ccc(NC(=O)C4CC4)cc3)n2)n[nH]1 | > 10000 | > 10 | 5520 | > 10 | 492 | > 10 | > 10 | > 10 | 59.4 | > 10 | 1180 | > 10 | 1920 | > 10 | 4.27 | > 10
8 | Nc1nc(N)c2cc(Sc3cccc(C(F)(F)F)c3)ccc2n1 | – | 14.7 | – | 19 | – | 16.2 | – | 18.6 | – | 4.71 | – | 8.16 | – | 13.9 | – | 16.7
9 | COc1cc(/C=C/c2cc(/C=C/c3ccc(O)c(OC)c3)n(C(=O)Nc3ccc(Cl)cc3)n2)ccc1O | 520 | 11.4 | 580 | 4.2 | 486 | 3.39 | 0.803 | 5.73 | 106 | – | 2580 | 6.26 | 501 | 2.41 | 0.401 | 36.6
10 | Cc1cccc(NC(=O)/C=C/c2ccc([N+](=O)[O-])cc2)c1 | – | 28.8 | – | > 76.8 | – | > 43.9 | – | > 56.3 | – | > 24.5 | – | > 70.3 | – | > 74.1 | – | > 54.4
11 | N#Cc1c(N)nc(NCc2ccccc2)c(C#N)c1-c1ccc(Cl)cc1Cl | > 100000 | > 100 | – | 1.18 | > 100000 | > 100 | 24.7 | 99.3 | 2070 | 21.8 | > 100000 | > 100 | > 100000 | > 100 | > 100 | > 100
12 | O=S(=O)(Nc1ccc(F)c(Cl)c1)c1ccc(-c2cnc(C3CC3)o2)cc1 | 533 | 12 | 1240 | 11.3 | 126 | 9.83 | 1.2 | 11.7 | 83.8 | > 42.3 | 259 | 2.56 | 305 | 1.8 | 0.179 | 11.7
13 | Cc1cnc(Nc2ccc(N3CCN(C)CC3)cc2)nc1Nc1ccc(Cl)c(NS(=O)(=O)C(C)(C)C)c1 | 90.2 | 2.2 | 474 | 3.54 | 79.5 | 2.49 | 0.18 | 23.7 | 92 | 6.26 | 96.1 | 4.19 | 434 | 1.84 | 0.0621 | 2.09
14 | CC1=C[C@H]2C[C@H](C)[C@H]3CC[C@H](C)[C@]4(C1)C(=O)C(O)=C(C)C(=O)[C@@]324 | 34200 | > 100 | > 100000 | > 100 | > 100000 | > 100 | 29.8 | > 100 | 27400 | 82.6 | 27800 | > 100 | 52600 | > 100 | 24.9 | 66.1
15 | O=C(Nc1cc(Oc2cc(F)c(NC(=O)C3(C(=O)Nc4ccc(F)cc4)CC3)cc2F)ccn1)C1CC1 | 2870 | > 100 | 3090 | > 28.5 | 936 | 9.55 | 3.93 | > 30.8 | 1700 | 5.38 | 929 | 4.74 | 1830 | 4.14 | 3.77 | > 100
16 | CNS(=O)(=O)OCC1OC(n2cnc3c(N)ncnc32)C(O)C1O (stereo not given) | > 100000 | > 100 | > 100000 | > 100 | > 100000 | > 100 | > 100 | > 100 | – | – | > 100000 | > 100 | > 100000 | > 100 | > 100 | > 100
